Each block holds one compound with its values, some of them ahead of it.
How the values were obtained:
[1] = Systemic cytokines in CT26 tumor model after intratumoral injection; assay type: in vivo, Balb/c mice; conditions: 2 h after intratumoral injection
Protocol: FIGS. 17A-C (A) Outline of in vivo tumor model experiment. (B) Systemic IL-6 levels measured in the serum 2 h after intertumoral injection of compounds. (C) Systemic TNF-α levels measured in the serum 2 h after intertumoral injection of compounds.
0.2×10^6 CT-26 cells were injected subcutaneously into the flank of 6-week-old Balb/c mice (n=10 per group) in 100 μL of PBS. The tumor size was monitored on alternating days. Tumor volumes were measured using the equation V=1/2×L×W×W. When the tumors reached a size of approximately 75 mm3 (day 11), treatment was started. Various formulations (20 nmols of each agonist or PBS) were injected peritumorally every 4 days […]. Mice were euthanized when the tumors reached 20 mm in any linear dimension. Five mice for each group were used for blood analysis. Blood was collected two days post the first injection for hematological toxicity analysis and two hours post the second injection for systemic cytokine analysis.
After 11 days, the tumors were established and intratumoral injections were administered with the SMIP adjuvant and adjuvant dimers. At 2 h and 24 h after these injections, serum and blood were collected to examine systemic cytokines in the serum and perform a hematological analysis on the blood to better quantify adjuvant toxicity. Similar to the OVA vaccination model, the dimer adjuvants induced baseline levels of IL-6 and TNF-α as measured in the serum.

[2] = with CPG in vaccine formulations; vaccine protective effects maintained; cited from earlier work
cells from the dLNs = assay: Cytokines from draining lymph node cells re-stimulated with OVA (CBA); assay type: in vivo, C57Bl/6 mice; conditions: re-stimulated with OVA for 48 hours
BMDMs [3] = assay: TNF-α in supernatant of BMDMs by ELISA; assay type: cell-based, C57Bl/6 mice; conditions: treated BMDMs; compared with pTLR7/8 and mTLR7/8
BMDMs [4] = assay: Flow cytometry of costimulatory molecules CD40 and CD86 on BMDMs; assay type: cell-based, C57Bl/6 mice; conditions: 18 h at 37° C
Protocol: FIGS. 2A-B show immune activation as measured by costimulatory molecules CD40 (FIG. 2A) and CD86 (FIG. 2B) on BMDMs. Cells were incubated with each compound for 18 h at 37° C. Error bars represent SD. Samples were run in triplicate. […] Each experiment was repeated thrice with similar results.
Flow Cytometry for Cell Surface Marker Upregulation: BMDCs were plated in untreated 12-well plates at 1×10^6 cells/mL and incubated with agonists in culture media for 18 h at 37° C. with 5% CO2. The cells were released from the plate by pipetting vigorously and centrifuged at 2500 RPM at 4° C. for 10 min. The cell pellet was resuspended in cold FACS buffer (PBS, 10% FBS, and 0.1% sodium azide) buffer (300 μL) and incubated with CD16/32 FcR blocking antibodies (1.0 μg/1×10^6 cells) on ice for 15 min. The cell suspension was pelleted, and the supernatant was removed. Next, the cell pellet was resuspended in cold FACS buffer (100 μL) and stained for CD86 and CD40 in the dark for 30 min. The samples were then washed twice with 300 μL FACS buffer. The pelleted cells were resuspended in cold FACS buffer (200 μL) and kept on ice until being loaded onto the flow cytometer for analysis.

[5] = system: NF-κB in RAW-Blue 264.7 macrophage cells; assay: RAW-Blue 264.7 macrophage NF-κB assay (polymeric immunomodulator); assay type: cell-based; conditions: incubated 18 h at 37° C; QUANTIBlue absorbance 620 nm
Protocol: Cells were incubated with each compound for 18 h at 37° C. Supernatant was removed and incubated with QUANTIBlue for 1 h, and the absorbance at 620 nm was measured. Error bars represent standard deviation (SD). Samples were run in triplicate.
RAW264.7 Macrophage (RAW-Blue) NF-κB assay: RAW-Blue cells (passage 5-15) were plated in a 96 well plate at a density of 100,000 cells/well in 180 μL DMEM containing 10% heat-inactivated FBS (HI-FBS) and selective antibiotics. The cells were treated with agonists for […] at 37° C. and 5% CO2. NF-κB activity was measured by a QUANTI-Blue (InvivoGen) assay and the absorbance was measured at 620 nm using a Multiskan FC plate reader (Thermo Scientific).

OVA = assay: Serum anti-OVA IgG titers after OVA immunization (ELISA); assay type: in vivo, C57Bl/6 mice; conditions: immunized days 0 and 14; ELISA at 3 weeks

systemic IL-6 levels in serum [1]: comparable
systemic TNF-α levels in serum [1]: comparable
SMILES: CCCCCCCCCCCCCCCCCC(=O)NCCCCOn1c(CCCC)nc2c(N)nc3ccccc3c21 [Compound 3M-052]

systemic IL-6 levels in serum [1]: high levels
systemic TNF-α levels in serum [1]: high levels
SMILES: CCOCc1nc2c(N)nc3ccccc3c2n1CC(C)(C)O [Compound R848, resiquimod]

SMILES: COc1cc(CNC(=O)CCCC/C=C/C(C)C)ccc1O [capsaicin]
pro-inflammatory systemic IL-6 and TNF-α levels [2]: reduce

SMILES: C=CCc1ccc(O)c(-c2ccc(O)c(CC=C)c2)c1 [honokiol]
pro-inflammatory systemic IL-6 and TNF-α levels [2]: reduce

SMILES: CCCCc1nc2c(N)nc3ccccc3c2n1Cc1ccc(CNC(=O)CCCCCNC(=O)CCC(NC(=O)CNC(=O)C(CCC(=O)NCCCCCC(=O)NCc2ccc(Cn3c(CCCC)nc4c(N)nc5ccccc5c43)cc2)NC(=O)CNC(=O)C(CCC(=O)NCCCCCC(=O)NCc2ccc(Cn3c(CCCC)nc4c(N)nc5ccccc5c43)cc2)NC(=O)CNC(=O)C(CCC(=O)NCCCCCC(=O)NCc2ccc(Cn3c(CCCC)nc4c(N)nc5ccccc5c43)cc2)NC(=O)CNC(=O)C(CCC(=O)NCCCCCC(=O)NCc2ccc(Cn3c(CCCC)nc4c(N)nc5ccccc5c43)cc2)NC(=O)CCC(=O)N2Cc3ccccc3-c3nnn(CCCCCC(=O)NC(Cc4ccc(O)c(O)c4)C(=O)NC(Cc4ccc(O)c(O)c4)C(=O)NC(Cc4ccc(O)c(O)c4)C(=O)NC(Cc4ccc(O)c(O)c4)C(N)=O)c3-c3ccccc32)C(N)=O)cc1 (centres unmarked) [pTLR7/8_mod]
amount of IL-6 (FIG. 6B) produced by dLN cells (cells from the dLNs): highest levels
amount of IL-23 (FIG. 6A) produced by dLN cells (cells from the dLNs): highest levels
amount of TNF-α (FIG. 6C) produced by dLN cells (cells from the dLNs): highest levels
TNF-α concentration in supernatant (BMDMs [3]): smallest increase
levels of CD40 (BMDMs [4]): greatest increase
levels of CD86 (BMDMs [4]): greatest increase
NF-κB levels [5]: increased
serum titers of anti-OVA antibodies (OVA): Highest

— US20250041408A1, “SMALL MOLECULE IMMUNOPOTENTIATOR CONJUGATES OF NFKB ACTIVATORS AS ADJUVANTS WITH ENHANCED EFFICACY AND REDUCED TOXICITY” (THE UNIVERSITY OF CHICAGO, priority 2021, published 2025)
